Reference: US8362000B2, “Azetidinyl diamides as monoacylglycerol lipase inhibitors” (Janssen Pharmaceutica NV, priority 2009, dated 2013)
Where two headings read alike, the source gives them in different places.

How the values were obtained:
MGL = molecular target: T1, MGL (Rattus norvegicus, UniProt Q8R431); test: 2-AG accumulation assay in rat brain homogenate; type: biochemical; conditions: rat brain homogenate, 2-AG accumulation as percent of vehicle; for 2-AG accumulation, % of vehicle control at 1 µM: compound 1 μM, read-out: Rat Brain 2AG % VehCntrl (%) @ 1 μM; for 2-AG accumulation, % of vehicle control at 10 µM: compound 10 μM, read-out: Rat Brain 2AG % VehCntrl (%) @ 10 μM
T1 construct: one g rat brain was homogenized using a Polytron homogenizer; from tissue; host or cells: rat brain homogenate
T1 sequence (Q8R431 1-303): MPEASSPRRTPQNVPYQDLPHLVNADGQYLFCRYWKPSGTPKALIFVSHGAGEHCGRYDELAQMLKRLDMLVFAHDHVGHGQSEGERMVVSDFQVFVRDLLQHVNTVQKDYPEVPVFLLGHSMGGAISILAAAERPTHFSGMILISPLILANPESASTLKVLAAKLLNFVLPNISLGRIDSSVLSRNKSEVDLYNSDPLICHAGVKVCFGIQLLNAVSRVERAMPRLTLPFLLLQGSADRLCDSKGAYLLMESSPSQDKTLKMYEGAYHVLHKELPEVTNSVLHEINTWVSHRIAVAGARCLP

mutant MGL = molecular target: T2, mutant MGL (Homo sapiens, UniProt Q99685, L169S/L176S); test: MGL ThermoFluor assay - mutant; type: binding; conditions: read-out: MGL mutant ThermoFluor Kd
T2 sequence (Q99685 1-303 L169S/L176S): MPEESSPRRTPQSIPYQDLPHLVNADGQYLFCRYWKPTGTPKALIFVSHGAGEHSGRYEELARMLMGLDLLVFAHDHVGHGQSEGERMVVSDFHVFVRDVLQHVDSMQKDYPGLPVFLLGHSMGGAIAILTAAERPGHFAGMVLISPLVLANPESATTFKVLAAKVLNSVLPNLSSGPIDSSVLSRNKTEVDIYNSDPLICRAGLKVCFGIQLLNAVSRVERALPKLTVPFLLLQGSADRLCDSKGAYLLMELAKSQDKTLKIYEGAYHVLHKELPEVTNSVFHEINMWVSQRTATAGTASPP

[1] = ThermoFluor concentration-response
[2] = ThermoFluor thermal stability binding assay

2-AG accumulation, % of vehicle control at 1 µM (MGL) [%] | Kd (mutant MGL; [1]) [nM] | 2-AG accumulation, % of vehicle control at 10 µM (MGL) [%] | 2-AG accumulation, % of vehicle control at 0.01 µM (MGL; compound 0.01 μM, read-out: Rat Brain 2AG % VehCntrl (%) @ 0.01 μM) [%] | 2-AG accumulation, % of vehicle control at 0.1 µM (MGL; compound 0.1 μM, read-out: Rat Brain 2AG % VehCntrl (%) @ 0.1 μM) [%] | Kd (mutant MGL; [2]) [nM] | SMILES
554 | 3.6 | 623 | 75 | 238 | – | O=C(c1ccc(-c2ccccc2)cc1)N1CC(N2CCN(C(=O)c3ccco3)CC2)C1 [Cpd 6, 1-[1-(Biphenyl-4-ylcarbonyl)azetidin-3-yl]-4-(furan-2-ylcarbonyl)piperazine]
– | 14.3 | 448 | – | – | – | O=C(c1ccc(-c2ccccc2)cc1)N1CC(N2CCN(C(=O)c3ccc(Br)o3)CC2)C1 [Cpd 12, 1-[1-(Biphenyl-4-ylcarbonyl)azetidin-3-yl]-4-[(5-bromofuran-2-yl)carbonyl]piperazine]
– | 9.09 | 231 | – | – | – | O=C(c1ccccc1)N1CCN(C2CN(C(=O)c3ccc(-c4cccc(Cl)c4)cc3)C2)CC1 [Cpd 77, 1-{1-[(3′-Chlorobiphenyl-4-yl)carbonyl]azetidin-3-yl}-4-(phenylcarbonyl)piperazine]
105 | 111 | – | – | – | – | O=C(c1ccccc1)N1CCN(C2CN(C(=O)c3ccc(-c4ccc(Br)cc4)cc3)C2)CC1 [Cpd 83, 1-{1-[(4′-Bromobiphenyl-4-yl)carbonyl]azetidin-3-yl}-4-(phenylcarbonyl)piperazine]
499 | – | – | – | – | 10 | O=C(c1ccccc1)N1CCN(C2CN(C(=O)c3ccc4c(ccn4-c4cccc(C(F)(F)F)c4)c3)C2)CC1 [Cpd 129, 1-[3-(Trifluoromethyl)phenyl]-5-({3-[4-(phenyl-carbonyl)piperazin-1-yl]azetidin-1-yl}carbonyl)-1H-indole]
149 | – | – | – | – | 16 | [2H]c1c([2H])c([2H])c(C(=O)N2CCN(C3CN(C(=O)c4ccc(-c5cccc(C(F)(F)F)c5)cc4)C3)CC2)c([2H])c1[2H] [Cpd 186-A]
120 | – | – | – | – | 16.7 | Cc1cc(C(=O)N2CC(N3CCN(C(=O)c4ccccc4)CC3)C2)ccc1-c1cccc(C(F)(F)F)c1 [Cpd 243, 1-(1-{[2-Methyl-3′-(trifluoromethyl)biphenyl-4-yl]carbonyl}azetidin-3-yl)-4-(phenylcarbonyl)piperazine]
140 | – | – | – | – | 20 | Cc1cc(C(=O)N2CC(N3CCN(C(=O)c4ccccc4)CC3)C2)ccc1-c1ccc(Cl)c(C(F)(F)F)c1 [Cpd 260, 1-(1-{[4′-Chloro-2-methyl-3′-(trifluoromethyl)biphenyl-4-yl]carbonyl}azetidin-3-yl)-4-(phenylcarbonyl)piperazine]
172 | – | – | – | – | 10 | COc1cc(C(=O)N2CC(N3CCN(C(=O)c4ccccc4)CC3)C2)ccc1-c1ccc(Cl)c(C(F)(F)F)c1 [Cpd 264, 1-(1-{[4′-Chloro-2-methoxy-3′-(trifluoromethyl)biphenyl-4-yl]carbonyl}azetidin-3-yl)-4-(phenylcarbonyl)piperazine]
110 | – | – | – | – | 25 | O=C(c1ccccc1)N1CCN(C2CN(C(=O)c3ccc(-c4ccc(Cl)c(C(F)(F)F)c4)cc3Cl)C2)CC1 [Cpd 268, 1-(1-{[3,4′-Dichloro-3′-(trifluoromethyl)biphenyl-4-yl]carbonyl}azetidin-3-yl)-4-(phenylcarbonyl)piperazine]
141 | – | – | – | – | 250 | O=C(c1ccc(-c2ccccc2)cc1)N1CC(N2CCN(C(=O)c3ccns3)CC2)C1 [Cpd 310, 1-[1-(Biphenyl-4-ylcarbonyl)azetidin-3-yl]-4-(isothiazol-5-ylcarbonyl)piperazine]
125 | – | – | – | – | 80 | O=C(c1cc[nH]c1)N1CCN(C2CN(C(=O)c3ccc(-c4ccccc4)cc3)C2)CC1 [Cpd 311, 1-[1-(Biphenyl-4-ylcarbonyl)azetidin-3-yl]-4-(1H-pyrrol-3-ylcarbonyl)piperazine]
198 | – | – | – | – | 25 | O=C(c1ccc(-c2ccccc2)cc1)N1CC(N2CCN(C(=O)c3ccc(Cl)o3)CC2)C1 [Cpd 312, 1-[1-(Biphenyl-4-ylcarbonyl)azetidin-3-yl]-4-[(5-chlorofuran-2-yl)carbonyl]piperazine]

Continued, compound first:

SMILES | 2-AG accumulation, % of vehicle control at 1 µM (MGL) [%] | Kd (mutant MGL; [1]) [nM] | 2-AG accumulation, % of vehicle control at 10 µM (MGL) [%] | 2-AG accumulation, % of vehicle control at 0.01 µM (MGL; compound 0.01 μM, read-out: Rat Brain 2AG % VehCntrl (%) @ 0.01 μM) [%] | 2-AG accumulation, % of vehicle control at 0.1 µM (MGL; compound 0.1 μM, read-out: Rat Brain 2AG % VehCntrl (%) @ 0.1 μM) [%] | Kd (mutant MGL; [2]) [nM]
O=C(c1nccs1)N1CCN(C2CN(C(=O)[C@@H]3C[C@H]3c3ccccc3Cl)C2)CC1 (racemic) [Cpd 642] | 170 | 499 | – | – | – | –
O=C(c1ccc(C2CCCCC2)cc1)N1CC(N2CCN(C(=O)c3ccco3)CC2)C1 [Cpd 2, 1-{1-[(4-Cyclohexylphenyl)carbonyl]azetidin-3-yl}-4-(furan-2-ylcarbonyl)piperazine] | – | 0.49 | 911 | – | – | –
CN(c1ccccc1)c1ccc(C(=O)N2CC(N3CCN(C(=O)c4ccccc4)CC3)C2)cc1 [Cpd 40, N-Methyl-N-phenyl-4-({3-[4-(phenylcarbonyl)piperazin-1-yl]azetidin-1-yl}carbonyl)aniline] | – | 24.2 | 490 | – | – | –
O=C(c1ccccc1)N1CCN(C2CN(C(=O)c3ccc(N4CCCCCC4)cc3)C2)CC1 [Cpd 41, 1-[4-({3-[4-(Phenylcarbonyl)piperazin-1-yl]azetidin-1-yl}carbonyl)phenyl]azepane] | – | 4 | 544 | – | – | –
O=C(c1ccc(Cc2ccccc2)cc1)N1CCN(C2CN(C(=O)c3ccccc3)C2)CC1 [Cpd 61, 1-[(4-Benzylphenyl)carbonyl]-4-[1-(phenylcarbonyl)azetidin-3-yl]piperazine] | – | 29 | 604 | – | – | –
O=C(c1ccc(-c2ccc(Cl)cc2)cc1)N1CC(N2CCN(C(=O)c3nccs3)CC2)C1 [Cpd 163, 1-{1-[(4′-Chlorobiphenyl-4-yl)carbonyl]azetidin-3-yl}-4-(1,3-thiazol-2-ylcarbonyl)piperazine] | – | 3.45 | 923 | – | – | –
O=C(c1ccc(-c2cc(Cl)cc(Cl)c2)cc1)N1CC(N2CCN(C(=O)c3nccs3)CC2)C1 [Cpd 164, 1-{1-[(3′,5′-Dichlorobiphenyl-4-yl)carbonyl]azetidin-3-yl}-4-(1,3-thiazol-2-ylcarbonyl)piperazine] | – | 1.11 | 969 | – | – | –
O=C(c1ccc(-c2ccccc2)c(F)c1)N1CC(N2CCN(C(=O)c3cscn3)CC2)C1 [Cpd 170, 1-{1-[(2-Fluorobiphenyl-4-yl)carbonyl]azetidin-3-yl}-4-(1,3-thiazol-4-ylcarbonyl)piperazine] | 205 | 60.6 | – | – | – | –
O=C(c1ccc(-c2ccc(F)cc2F)cc1)N1CC(N2CCN(C(=O)c3cscn3)CC2)C1 [Cpd 226, 1-{1-[(2′,4′-Difluorobiphenyl-4-yl)carbonyl]azetidin-3-yl}-4-(1,3-thiazol-4-ylcarbonyl)piperazine] | – | – | 652 | – | – | 20
Cc1cc(-c2ccc(F)c(Cl)c2)ccc1C(=O)N1CC(N2CCN(C(=O)c3ccccc3)CC2)C1 [Cpd 255, 1-{1-[(3′-Chloro-4′-fluoro-3-methylbiphenyl-4-yl)carbonyl]azetidin-3-yl}-4-(phenylcarbonyl)piperazine] | 115 | – | – | – | – | 27
Cc1cc(C(=O)N2CC(N3CCN(C(=O)c4ccccc4)CC3)C2)ccc1-c1ccc(F)c(Cl)c1 [Cpd 259, 1-{1-[(3′-Chloro-4′-fluoro-2-methylbiphenyl-4-yl)carbonyl]azetidin-3-yl}-4-(phenylcarbonyl)piperazine] | 156 | – | – | – | – | 7.7
O=C(c1ccccc1)N1CCN(C2CN(C(=O)c3ccc(-c4ccc(F)c(Cl)c4)cc3Cl)C2)CC1 [Cpd 267, 1-{1-[(3,3′-Dichloro-4′-fluorobiphenyl-4-yl)carbonyl]azetidin-3-yl}-4-(phenylcarbonyl)piperazine] | 130 | – | – | – | – | 12.5
O=C(c1cc2ccc(C(F)(F)F)cc2s1)N1CC(N2CCN(C(=O)c3nccs3)CC2)C1 [Cpd 323, 1-(1,3-Thiazol-2-ylcarbonyl)-4-(1-{[6-(trifluoromethyl)-1-benzothiophen-2-yl]carbonyl}azetidin-3-yl)piperazine] | – | – | 494 | – | – | 1.3
O=C(c1cc2c(C(F)(F)F)cccc2s1)N1CC(N2CCN(C(=O)c3nccs3)CC2)C1 [Cpd 327, 1-(1,3-Thiazol-2-ylcarbonyl)-4-(1-{[4-(trifluoromethyl)-1-benzothiophen-2-yl]carbonyl}azetidin-3-yl)piperazine] | 904 | – | – | – | – | 13.7
O=C(c1cc2cccc(C(F)(F)F)c2s1)N1CC(N2CCN(C(=O)c3nccs3)CC2)C1 [Cpd 328] | 378 | – | – | – | – | 81.6
